Legend:
[1] = Oral bioavailability in rat; format: ADME, organism-based; details: in vivo
[2] = Oral bioavailability in rhesus monkey; format: ADME, organism-based, Macaca mulatta; details: in vivo
[3] = Distribution coefficient, logD of compound; format: physicochemical; details: octanol/water
[4] = Solubility of the compound at pH 7; format: physicochemical; details: buffer
[5] = Solubility of the compound at pH 2; format: physicochemical; details: buffer

bioavailability [1] [%] | bioavailability [2] [%] | logD [3] | solubility [4] [µM] | solubility [5] [µM] | SMILES
> 99 | > 99 | 2.1 |  |  | NC(=O)c1cc(-c2ccc(F)cc2)c2ccc(CN3C(=O)CCC3=O)cc2n1
 |  |  | < 0.8 | < 0.8 | CC[C@@](O)(c1cn(Cc2ccc3c(-c4ccc(F)cc4)cc(C(N)=O)nc3c2)nn1)C(F)(F)F

From ChEMBL document CHEMBL4619715 (Bioorg Med Chem Lett, 2020)
